Earlier results on one compound are cited in patent publication US10881615B2, “Pharmaceutical composition comprising dabigatran etexilate, and preparation method, solid preparation and use thereof” (Chia Tai Tianqing Pharmaceutical Group Co., Ltd., priority 2014, dated 2021).

The conditions of the data set: medium at pH of >4.0.

For `CCCCCCOC(=O)NC(=N)c1ccc(NCc2nc3cc(C(=O)N(CCC(=O)OCC)c4ccccn4)ccc3n2C)cc1` [dabigatran etexilate, 3-[(2-{[4-(hexyloxycarbonylamino-imino-methyl)-phenylamino]-methyl}-1-methyl-1H-benzimidazol-5-yl-carbonyl)-pyridin-2-yl-amino]-ethyl propionate], the Solubility result is on record as “almost insoluble”.
